Experimental findings from US7671074B2, “Sulfonylguanidine compounds and pharmaceutical uses thereof” (Gruenenthal GmbH, priority 2000, dated 2010) are described below.

In one test the target is gabapentin binding site. In words: Binding assay: displacement of gabapentin from its binding site. Conditions: for IC50: displacement of gabapentin from its binding site; for Percent inhibition: inhibition/displacement of gabapentin, concentration 10^−5 μM [sic]. The method, then:
Gabapentin was used in a binding assay in order to check the binding and affinities of the selected compounds. The affinity of the compounds according to the invention was measured via the displacement of gabapentin from its binding site.

Test [1] relates to male Sprague-Dawley rats with L5/L6 spinal nerve ligatures. In words: In vivo experiments according to Chung (spinal nerve ligation, tactile withdrawal threshold). Also on record: species or system rat. To be noted: for ED50: Rattus norvegicus. The method, then:
In male Sprague-Dawley rats spinal nerve ligatures were applied according to Kim and Chung (1992) to the left L5/L6 spinal nerves. At the same time spinal catheters were implanted according to Pogatzki et al. ^6 (2000). 4 to 6 days after the operation the tactile threshold baseline (withdrawal thresholds) was measured on the ipsilateral and contra lateral rear paw by an electronic vonFrey anaesthesiometer (IITC Life Science, USA). […] After the test and baseline measurement, gabapentin and substances according to the invention were administered. The tactile withdrawal thresholds were measured 30 minutes after administration. The results are expressed as ED50 and % maximal possible effect (% MPE; % of the maximal possible effect) on the ipsilateral side, in which the baseline is taken as 0% and the withdrawal threshold of a control group is taken as 100% MPE.

The structures appear in SMILES notation. Like-named read-outs stand apart in the source and are kept apart here.

At gabapentin binding site, `Cc1ccc(S(=O)(=O)/N=C(\N)NCc2ccccn2)cc1` [Example 1] showed an IC50 of 421 nM and a Percent inhibition of 82%. Besides, the ED50 in test [1] (0.5 h, rats, Chung model, tactile withdrawal thresholds 30 minutes after administration, ipsilateral side, read-out: ED50) is around 25 mg/kg. Further, in test [1] (read-out:, table title: Analgesia testing in rats according to Chung, further investigation), the ED50 was in the range of 10 to 20 mg/kg. Besides, the “superiority to gabapentin (factor)” value in test [1] (rats, Chung model, ED50 compared with gabapentin) is on record as 4. The “effect compared with gabapentin” value in test [1] (rats, Chung test, further investigation, result in words) is given as “superior in their effect to gabapentin”. Also, the “effect in the Chung test” value in test [1] (rats, further investigation, result in words) was “show an effect”.

Turning to `Cc1ccc(S(=O)(=O)/N=C(\N)NCc2ccccc2)cc1` [Example 2, N-[amino-(benzylaminomethylene)]-4-methylbenzene-sulfonamide], the Percent inhibition in the test with gabapentin binding site was found to be 69.7%. `N/C(=N\S(=O)(=O)c1ccc(Br)cc1)NCc1ccccn1` [Example 32, N-{amino[(pyridin-2-yl-methyl)-amino]-methylene}-4-bromobenzenesulfonamide] displayed an IC50 at gabapentin binding site of 218 nM. At gabapentin binding site, `N/C(=N\S(=O)(=O)c1ccc(Cl)c(Cl)c1)NCc1ccccn1` [Example 33, N-{amino[(pyridin-2-yl-methyl)-amino]-methylene}-3,4-dichlorobenzenesulfonamide] had a 50% inhibitory concentration (IC50) of 1100 nM. `CC(C)c1ccc(S(=O)(=O)/N=C(\N)NCc2ccccn2)cc1` [Example 34, N-{amino[(pyridin-2-yl-methyl)-amino]-methylene}-4-isopropylbenzenesulfonamide] showed a half-inhibitory concentration (IC50) on gabapentin binding site of 33 nM. As for `N/C(=N\S(=O)(=O)c1ccc(I)cc1)NCc1ccccn1` [Example 35, N-{amino[(pyridin-2-yl-methyl)-amino]-methylene}-4-iodobenzenesulfonamide], the IC50 on gabapentin binding site worked out at 50 nM. Molecule `Cl.N/C(=N\S(=O)(=O)c1ccccc1)NCc1ccccn1` [Example 36, N-{amino[(pyridin-2-yl-methyl)-amino]-methylene}-benzenesulfonamide] came in with a Percent inhibition in the test on gabapentin binding site of 17%. `N/C(=N\S(=O)(=O)c1ccc2ccccc2c1)NCc1ccccn1` [Example 37, Naphthalene-2-sulfonic acid amino-[(pyridin-2-yl-methyl)-amino]-methylene amide] yielded an IC50 at gabapentin binding site of 122 nM. Molecule `CC(=O)Nc1ccc(S(=O)(=O)/N=C(\N)NCc2ccccn2)cc1.Cl` [Example 39, N-[4-({amino-[(pyridin-2-yl-methyl)-amino]-methylene}-sulfamoyl)-phenyl]-acetamide] displayed a Percent inhibition in the test on gabapentin binding site of 27%. For `Cl.N/C(=N\S(=O)(=O)c1ccc(F)cc1)NCc1ccccn1` [Example 40, N-{amino[(pyridin-2-yl-methyl)-amino]-methylene}-4-fluorobenzenesulfonamide], in the test with gabapentin binding site, the Percent inhibition is 21%. Molecule `Cc1cc(C)c(S(=O)(=O)/N=C(\N)NCc2ccccn2)c(C)c1` [Example 41, N-{amino[(pyridin-2-yl-methyl)-amino]-methylene}-2,4,6-trimethylbenzenesulfonamide] registered an IC50 on gabapentin binding site of 438 nM.

For `CCCc1ccc(S(=O)(=O)/N=C(\N)NCc2ccccn2)cc1` [Example 42, N-{amino[(pyridin-2-yl-methyl)-amino]-methylene}-4-propylbenzenesulfonamide], on gabapentin binding site, the IC50 stood at 27 nM. At gabapentin binding site, `COc1ccc(S(=O)(=O)/N=C(\N)NCc2ccccn2)cc1` [Example 43, N-{amino[(pyridin-2-yl-methyl)-amino]-methylene}-4-methoxybenzenesulfonamide] returned an IC50 of 634 nM. On the same count and under the same terms, to `N/C(=N\S(=O)(=O)c1cccc2ccccc12)NCc1ccccn1` [Example 44, Naphthalene-1-sulfonic acid amino-[(pyridin-2-yl-methyl)-amino]-methylene amide] belongs 5300 nM.

For the molecule `Cc1cccc(S(=O)(=O)/N=C(\N)NCc2ccccn2)c1` [Example 45, N-{amino[(pyridin-2-yl-methyl)-amino]-methylene}-3-methylbenzenesulfonamide], the Percent inhibition in the test on gabapentin binding site was determined as 35%. On the same count and under the same terms, to `N/C(=N\S(=O)(=O)c1cccs1)NCc1ccccn1` [Example 46, Thiophene-2-sulfonic acid amino-[(pyridin-2-yl-methyl)-amino]-methylene amide] belongs 36%. With `N/C(=N\S(=O)(=O)c1cccc2cccnc12)NCc1ccccn1` [Example 47, Quinoline-8-sulfonic acid amino-[(pyridin-2-yl-methyl)-amino]-methylene amide], the IC50 on gabapentin binding site was 2800 nM.

Turning to `Cc1c(S(=O)(=O)/N=C(\N)NCc2ccccn2)sc2ccc(Cl)cc12` [Example 48, 5-chloro-3-methylbenzo[b]thiophene-2-sulfonic acid amino-[(pyridin-2-yl-methyl)-amino]-methylene amide], at gabapentin binding site, the IC50 came out at 136 nM. Molecule `CC(C)(C)c1ccc(S(=O)(=O)/N=C(/N)NCc2ccccn2)cc1` [Example 49, N-{amino[(pyridin-2-yl-methyl)-amino]-methylene}-4-tert.-butylbenzenesulfonamide] displayed a half-inhibitory concentration (IC50) on gabapentin binding site of 90 nM. Regarding `CCCCc1ccc(S(=O)(=O)/N=C(\N)NCc2ccccn2)cc1` [Example 50, N-{amino[(pyridin-2-yl-methyl)-amino]-methylene}-4-butylbenzenesulfonamide], the IC50 at gabapentin binding site turned out to be 170 nM. For the molecule `CC(C)(C)c1ccc(S(=O)(=O)/N=C(/N)NCc2ncccn2)cc1.Cl` [Example 51], in the test with gabapentin binding site, the Percent inhibition was 5%. For the molecule `CCCCc1ccc(S(=O)(=O)/N=C(/N)NCc2ccco2)cc1.Cl` [Example 52, N-{amino[(furan-2-yl-methyl)-amino]-methylene}-4-butylbenzenesulfonamide], the Percent inhibition in the test with gabapentin binding site turned out to be 47%. For `Cc1ccc(S(=O)(=O)/N=C(/N)NCc2ccco2)cc1.Cl` [Example 53, N-{amino[(furan-2-yl-methyl)-amino]-methylene}-4-methylbenzenesulfonamide], the Percent inhibition in the test on gabapentin binding site is recorded as 26%. The molecule `CC(C)c1ccc(S(=O)(=O)/N=C(/N)NCc2ccco2)cc1` [Example 54, N-{amino[(furan-2-yl-methyl)-amino]-methylene}-4-isopropylbenzenesulfonamide] returned an IC50 on gabapentin binding site of 3510 nM. Consider `CCCc1ccc(S(=O)(=O)/N=C(/N)NCc2ccco2)cc1` [Example 55, N-{amino[(furan-2-yl-methyl)-amino]-methylene}-4-propylbenzenesulfonamide], for which the IC50 on gabapentin binding site amounted to 3200 nM.

In the case of `CC(C)(C)c1ccc(S(=O)(=O)/N=C(/N)NCc2ccco2)cc1.Cl` [Example 56, N-{amino[(furan-2-yl-methyl)-amino]-methylene}-4-tert.-butylbenzenesulfonamide], the Percent inhibition with gabapentin binding site was found to be 49%. `CCCCc1ccc(S(=O)(=O)/N=C(/N)NCc2cccs2)cc1.Cl` [Example 57, N-{amino[(thiophen-2-yl-methyl)-amino]-methylene}-4-butylbenzenesulfonamide] had a Percent inhibition in the test with gabapentin binding site of 41%. In the case of `CCCc1ccc(S(=O)(=O)/N=C(/N)NCc2cccs2)cc1` [Example 58, N-{amino[(thiophen-2-yl-methyl)-amino]-methylene}-4-propylbenzenesulfonamide], the concentration for half-maximal inhibition (IC50) on gabapentin binding site worked out at 1820 nM.

Consider `CC(C)c1ccc(S(=O)(=O)/N=C(/N)NCc2cccs2)cc1` [Example 59, N-{amino[(thiophen-2-yl-methyl)-amino]-methylene}-4-isopropylbenzenesulfonamide], for which the 50% inhibitory concentration (IC50) on gabapentin binding site came out at 970 nM. Turning to `CC(C)(C)c1ccc(S(=O)(=O)/N=C(/N)NCc2cccs2)cc1` [Example 60, N-{amino[(thiophen-2-yl-methyl)-amino]-methylene}-4-tert.-butylbenzenesulfonamide], the IC50 on gabapentin binding site worked out at 5690 nM. In the case of `Cl.N/C(=N/S(=O)(=O)c1ccc(Cl)cc1)NCc1cccs1` [Example 61, N-{amino[(thiophen-2-yl-methyl)-amino]-methylene}-4-chlorobenzenesulfonamide], in the test on gabapentin binding site, the Percent inhibition turned out to be 24%. `Cc1ccc(S(=O)(=O)/N=C(/N)NCc2cccs2)cc1.Cl` [Example 62, N-{amino[(thiophen-2-yl-methyl)-amino]-methylene}-4-methylbenzenesulfonamide] gave a Percent inhibition in the test on gabapentin binding site of 29%. Turning to `Cl.N/C(=N/S(=O)(=O)c1ccc(Cl)cc1)NCc1ccco1` [Example 63, N-{amino[(furan-2-yl-methyl)-amino]-methylene}-4-chlorobenzenesulfonamide], in the test on gabapentin binding site, the Percent inhibition amounted to 23.5%.
